Test results reported in ChEMBL document CHEMBL3098094, “Synthesis and biological evaluation of novel N-substituted 1H-dibenzo[a,c]carbazole derivatives of dehydroabietic acid as potential antimicrobial agents” (2014).
In brackets after ≈: the same amount, converted by molar mass.

Assays:
Assay type in all cases: functional
Aspergillus niger = experiment: Antimicrobial activity against Aspergillus niger CGMCC3.316 after 48 hrs by twofold serial microdilution method; conditions: CGMCC3.316, 48 h
Pseudomonas fluorescens = experiment: Antimicrobial activity against Pseudomonas fluorescens CGMCC1.1828 after 24 hrs by twofold serial microdilution method; conditions: CGMCC1.1828, 24 h
Bacillus subtilis = experiment: Antimicrobial activity against Bacillus subtilis CGMCC1.1162 after 24 hrs by twofold serial microdilution method; conditions: CGMCC1.1162, 24 h
Escherichia coli = experiment: Antimicrobial activity against Escherichia coli CGMCC1.1571 after 24 hrs by twofold serial microdilution method; conditions: CGMCC1.1571, 24 h
Candida albicans = experiment: Antimicrobial activity against Candida albicans CGMCC2.2086 after 48 hrs by twofold serial microdilution method; conditions: CGMCC2.2086, 48 h
Staphylococcus aureus = experiment: Antimicrobial activity against Staphylococcus aureus CGMCC1.1361 after 24 hrs by twofold serial microdilution method; conditions: CGMCC1.1361, 24 h
Candida tropicalis = experiment: Antimicrobial activity against Candida tropicalis CGMCC2.3967 after 48 hrs by twofold serial microdilution method; conditions: CGMCC2.3967, 48 h

Compound	MIC (Aspergillus niger) [µg/mL]	MIC (Pseudomonas fluorescens) [µg/mL]	MIC (Bacillus subtilis) [µg/mL]	MIC (Escherichia coli) [µg/mL]	MIC (Candida albicans) [µg/mL]	MIC (Staphylococcus aureus) [µg/mL]	MIC (Candida tropicalis) [µg/mL]
CCCCN(CCCC)CCn1c2c(c3ccccc31)[C@H]1[C@](C)(C(=O)OC)CCC[C@]1(C)c1ccc(C(C)C)cc1-2	62.5 (≈ 112 µM)	15.6 (≈ 28 µM)	15.6 (≈ 28 µM)	31.2 (≈ 56 µM)	31.2 (≈ 56 µM)	15.6 (≈ 28 µM)	31.2 (≈ 56 µM)
COC(=O)[C@]1(C)CCC[C@]2(C)c3ccc(C(C)C)cc3-c3c(c4ccccc4n3CCn3ccnn3)[C@@H]12	> 100	31.2 (≈ 62.8 µM)	7.8 (≈ 15.7 µM)	15.6 (≈ 31.4 µM)	> 100	31.2 (≈ 62.8 µM)	> 100
COC(=O)[C@]1(C)CCC[C@]2(C)c3ccc(C(C)C)cc3-c3c(c4ccccc4n3CCN3CCOCC3)[C@@H]12	62.5 (≈ 121 µM)	31.2 (≈ 60.6 µM)	15.6 (≈ 30.3 µM)	31.2 (≈ 60.6 µM)	62.5 (≈ 121 µM)	7.8 (≈ 15.2 µM)	31.2 (≈ 60.6 µM)
COC(=O)[C@]1(C)CCC[C@]2(C)c3ccc(C(C)C)cc3-c3c(c4ccccc4n3CCn3ccnc3)[C@@H]12	> 100	> 100	31.2 (≈ 62.9 µM)	62.5 (≈ 126 µM)	62.5 (≈ 126 µM)	15.6 (≈ 31.5 µM)	> 100
COC(=O)[C@]1(C)CCC[C@]2(C)c3ccc(C(C)C)cc3-c3c(c4ccccc4n3CCNc3ccc(OC)cc3)[C@@H]12	> 100	> 100	> 100	> 100	> 100	62.5 (≈ 113 µM)	> 100
CCCN(CCC)CCn1c2c(c3ccccc31)[C@H]1[C@](C)(C(=O)OC)CCC[C@]1(C)c1ccc(C(C)C)cc1-2	> 100	31.2 (≈ 59 µM)	15.6 (≈ 29.5 µM)	31.2 (≈ 59 µM)	31.2 (≈ 59 µM)	31.2 (≈ 59 µM)	62.5 (≈ 118 µM)
COC(=O)[C@]1(C)CCC[C@]2(C)c3ccc(C(C)C)cc3-c3c(c4ccccc4n3CCN3CCNCC3)[C@@H]12	62.5 (≈ 122 µM)	15.6 (≈ 30.4 µM)	7.8 (≈ 15.2 µM)	15.6 (≈ 30.4 µM)	31.2 (≈ 60.7 µM)	15.6 (≈ 30.4 µM)	31.2 (≈ 60.7 µM)
COC(=O)[C@]1(C)CCC[C@]2(C)c3ccc(C(C)C)cc3C(=O)C[C@@H]12	> 100	62.5 (≈ 190 µM)	31.2 (≈ 95 µM)	> 100	> 100	31.2 (≈ 95 µM)	> 100
CCN(CC)CCn1c2c(c3ccccc31)[C@H]1[C@](C)(C(=O)OC)CCC[C@]1(C)c1ccc(C(C)C)cc1-2	> 100	62.5 (≈ 125 µM)	31.2 (≈ 62.3 µM)	> 100	62.5 (≈ 125 µM)	62.5 (≈ 125 µM)	> 100
COC(=O)[C@]1(C)CCC[C@]2(C)c3ccc(C(C)C)cc3-c3c(c4ccccc4n3CCN3CCN(C)CC3)[C@@H]12	7.8 (≈ 14.8 µM)	7.8 (≈ 14.8 µM)	3.9 (≈ 7.39 µM)	15.6 (≈ 29.6 µM)	7.8 (≈ 14.8 µM)	1.9 (≈ 3.6 µM)	7.8 (≈ 14.8 µM)
COC(=O)[C@]1(C)CCC[C@]2(C)c3ccc(C(C)C)cc3-c3c(c4ccccc4n3CCN3CCCCC3)[C@@H]12	> 100	62.5 (≈ 122 µM)	15.6 (≈ 30.4 µM)	> 100	> 100	62.5 (≈ 122 µM)	62.5 (≈ 122 µM)
COC(=O)[C@]1(C)CCC[C@]2(C)c3ccc(C(C)C)cc3-c3c(c4ccccc4n3CCn3cnnn3)[C@@H]12	> 100	15.6 (≈ 31.3 µM)	7.8 (≈ 15.7 µM)	31.2 (≈ 62.7 µM)	31.2 (≈ 62.7 µM)	31.2 (≈ 62.7 µM)	62.5 (≈ 126 µM)
COC(=O)[C@]1(C)CCC[C@]2(C)c3ccc(C(C)C)cc3-c3c(c4ccccc4n3CCNc3ccc(C)cc3)[C@@H]12	> 100	> 100	62.5 (≈ 117 µM)	> 100	> 100	> 100	> 100
